# Laboratory results: patent publication US7872051B2 (priority 2004, dated 2011)
# Like-named read-outs stand apart in the source and are kept apart here.
# Experiments:
# [1] = system: influenza virus A/Sydney/5/97; experiment: Trial 1 virucidal assay of PMD (CPE on MDCK cells); assay type: cell-based
# [2] = system: HSV-1 (Herpes Simplex Virus type 1); experiment: Trial 2 virucidal assay, HSV-1 on Vero cells; assay type: cell-based; conditions: for Kill rate: gradient between the 1 minute and 5 minute time-points (FIG. 2)
# [3] = system: Urbani SARS; assay type: cell-based, Urbani SARS virus; conditions: for Kill rate: line gradient of FIG. 3
# [4] = system: A/Sydney/5/97 (human influenza virus H3N2); experiment: Trial 2 virucidal assay, A/Sydney/5/97 on MDCK cells; assay type: cell-based; conditions: for Kill rate: line gradient of FIG. 4
# [5] = Solubility in water; assay type: physicochemical
# [6] = system: C1008 cells; conditions: 5 min exposure, count after 24 h vs cell only control, rounded to nearest 5
# Procedure: (§1) PMD was tested at the following concentrations: • 2% w/v (20 mg/ml) • 1% w/v (10 mg/ml) • 0.5% w/v (5 mg/ml • 0.25% w/v (2.5 mg/ml)
# (§2) Each PMD concentration was made up in 100% isopropyl and then sufficient cell infection media added such that the final concentration of isopropyl was always 10%.
# (§3) The different concentrations were made up by taking into account the initial dilution of the compound that occurs in the toxicity assay (step 1) and virucidal assay (step 4). The dilution factors for both assays are 2 and 1.1, respectively.
# (§4) Each of the four PMD concentrations was tested for toxicity on each of the three cell lines.
# (§5) A “cell only” control was also implemented by following the same procedure but substituting PMD (step 1) with infection media.
# (§6) The procedure for the toxicity assay was as follows: • 1) Cells (200 μl), at 2×10^6 cells/ml, were added to PMD (200 μl) and the reaction incubated for 5 minutes at room temperature. • 2) The reaction was terminated by the addition of infection media (3.6 ml) appropriate to the cell line. • 3) The terminated reaction (1 ml) was added, in triplicate, to the relevant wells of a 24-well plate. • 4) The cells were incubated for 24 hours at 37° C., 5% CO2. • 5) After the incubation period, the cells were trypsinised, the appropriate triplicate wells pooled together and a viable cell count performed using Trypan blue dye. • 6) The toxicity of PMD was determined by calculating the percentage cell survival of the test cells in comparison to the control cells.
# [7] = system: MDCK cells; conditions: 5 min exposure, count after 24 h vs cell only control, rounded to nearest 5
# Procedure: as §1, §2, §3, §4, §5, §6
# [8] = system: Vero cells; conditions: 5 min exposure, count after 24 h vs cell only control, rounded to nearest 5
# Procedure: as §1, §2, §3, §4, §5, §6
# [9] = system: MDCK cells; experiment: Trial 1 acute toxicity assay of PMD; conditions: PMD 2%, 0.5%, 0.25% and 0.1% w/v
# Procedure: The toxicity of PMD at the following concentrations in cell maintenance media was determined on a cell line with MDCK cells: • 2.5 mg/ml (0.25% w/v) • 5 mg/ml (0.5% w/v) • 20 mg/ml (2% w/v)
# A cell only control was also implemented by following the same procedure (steps 2-6), but substituting PMD with cell maintenance media.
# Toxicity was determined by toxicity-induced CPE (cytopathic effect) observations, which was visually scored using microscopy techniques. Toxicity-induced CPE is characterised by burst or rounded cells, which have become dissociated from their neighbouring cells, or the presence of cellular debris. […]
compound,measurement,setting,value
"CC1CCC(C(C)(C)O)C(O)C1 (stereo not drawn) [PMD, p-menthane-3,8-diol]",Viral replication as evidenced by cell survival,[1],no viral replication
same,Virucidal effect,"[1]; PMD 0.5%, 0.25% and 0.1%, MDCK cells (cells were killed)",no virucidal effect
same,Effectiveness against the virus,[2]; HSV-1,effective
same,Log reduction in viral titre,"[2]; HSV-1, PMD 0.25% w/v, contact time 10 seconds",0 −log10 TCID50/ml
same,Log reduction in viral titre,"[2]; HSV-1, PMD 0.25% w/v, contact time 30 seconds",0 −log10 TCID50/ml
same,Log reduction in viral titre,"[2]; HSV-1, PMD 0.25% w/v, contact time 60 seconds (1 minute)",0 −log10 TCID50/ml
same,Log reduction in viral titre,"[2]; HSV-1, PMD 0.25% w/v, contact time 300 seconds (5 minutes)",0.5 −log10 TCID50/ml
same,Log reduction in viral titre,"[2]; HSV-1, PMD 0.5% w/v, contact time 10 seconds",0 −log10 TCID50/ml
same,Log reduction in viral titre,"[2]; HSV-1, PMD 0.5% w/v, contact time 30 seconds",0 −log10 TCID50/ml
same,Log reduction in viral titre,"[2]; HSV-1, PMD 0.5% w/v, contact time 60 seconds (1 minute)",0 −log10 TCID50/ml
same,Log reduction in viral titre,"[2]; HSV-1, PMD 0.5% w/v, contact time 300 seconds (5 minutes)",0 −log10 TCID50/ml
same,Log reduction in viral titre,"[2]; HSV-1, PMD 1% w/v, contact time 10 seconds",0 −log10 TCID50/ml
same,Log reduction in viral titre,"[2]; HSV-1, PMD 1% w/v, contact time 30 seconds",0.5 −log10 TCID50/ml
same,Log reduction in viral titre,"[2]; HSV-1, PMD 1% w/v, contact time 60 seconds (1 minute)",0.5 −log10 TCID50/ml
same,Log reduction in viral titre,"[2]; HSV-1, PMD 1% w/v, contact time 300 seconds (5 minutes)",1.5 −log10 TCID50/ml
same,Kill rate,"[2]; HSV-1, PMD 1% w/v",0.3 −log10 TCID50/ml/min
same,Log reduction in viral titre,"[2]; HSV-1, PMD 2% w/v, contact time 10 seconds",0 −log10 TCID50/ml
same,Log reduction in viral titre,"[2]; HSV-1, PMD 2% w/v, contact time 30 seconds",0 −log10 TCID50/ml
same,Log reduction in viral titre,"[2]; HSV-1, PMD 2% w/v, contact time 60 seconds (1 minute)",0.5 −log10 TCID50/ml
same,Log reduction in viral titre,"[2]; HSV-1, PMD 2% w/v, contact time 300 seconds (5 minutes)",2.5 −log10 TCID50/ml
same,Kill rate,"[2]; HSV-1, PMD 2% w/v",0.5 −log10 TCID50/ml/min
same,Antiviral activity,[2]; PMD 0.25% w/v and 0.5% w/v,did not exhibit any antiviral activity
same,Reduction in viral titre (significance),"[2]; PMD 1% w/v and 2% w/v, 5 minute contact time",Significant reduction in viral titre
same,Reduction in viral titre (significance),[2]; all other concentrations and contact times,no significant reduction in viral titre
same,PMD concentration desirable for a significant effect,[2]; contact time of 5 minutes,at least 1 % w/v
same,Antiviral effect,"[3]; PMD 0.25%, 10 seconds' exposure",effective
same,Effectiveness against the virus,[3]; Urbani SARS,effective
same,Log reduction in viral titre,"[3]; Urbani SARS, PMD 0.25% w/v, contact time 10 seconds",1 −log10 TCID50/ml
same,Log reduction in viral titre,"[3]; Urbani SARS, PMD 0.25% w/v, contact time 30 seconds",2 −log10 TCID50/ml
same,Log reduction in viral titre,"[3]; Urbani SARS, PMD 0.25% w/v, contact time 60 seconds (1 minute)",1.5 −log10 TCID50/ml
same,Log reduction in viral titre,"[3]; Urbani SARS, PMD 0.25% w/v, contact time 300 seconds (5 minutes)",2 −log10 TCID50/ml
same,Kill rate,"[3]; Urbani SARS, PMD 0.25% w/v",4.0 −log10 TCID50/ml/min
same,Log reduction in viral titre,"[3]; Urbani SARS, PMD 0.5% w/v, contact time 10 seconds",1.5 −log10 TCID50/ml
same,Log reduction in viral titre,"[3]; Urbani SARS, PMD 0.5% w/v, contact time 30 seconds",2.5 −log10 TCID50/ml
same,Log reduction in viral titre,"[3]; Urbani SARS, PMD 0.5% w/v, contact time 60 seconds (1 minute)",2.5 −log10 TCID50/ml
same,Log reduction in viral titre,"[3]; Urbani SARS, PMD 0.5% w/v, contact time 300 seconds (5 minutes)",2.5 −log10 TCID50/ml
same,Kill rate,"[3]; Urbani SARS, PMD 0.5% w/v",6.0 −log10 TCID50/ml/min
same,Log reduction in viral titre,"[3]; Urbani SARS, PMD 1% w/v, contact time 10 seconds",2 −log10 TCID50/ml
same,Log reduction in viral titre,"[3]; Urbani SARS, PMD 1% w/v, contact time 30 seconds",1.5 −log10 TCID50/ml
same,Log reduction in viral titre,"[3]; Urbani SARS, PMD 1% w/v, contact time 60 seconds (1 minute)",2 −log10 TCID50/ml
same,Log reduction in viral titre,"[3]; Urbani SARS, PMD 1% w/v, contact time 300 seconds (5 minutes)",1.5 −log10 TCID50/ml
same,Kill rate,"[3]; Urbani SARS, PMD 1% w/v",6.0 −log10 TCID50/ml/min
same,Log reduction in viral titre,"[3]; Urbani SARS, PMD 2% w/v, contact time 10 seconds",1.5 −log10 TCID50/ml
same,Log reduction in viral titre,"[3]; Urbani SARS, PMD 2% w/v, contact time 30 seconds",1 −log10 TCID50/ml
same,Log reduction in viral titre,"[3]; Urbani SARS, PMD 2% w/v, contact time 60 seconds (1 minute)",1.5 −log10 TCID50/ml
same,Log reduction in viral titre,"[3]; Urbani SARS, PMD 2% w/v, contact time 300 seconds (5 minutes)",1.5 −log10 TCID50/ml
same,Kill rate,"[3]; Urbani SARS, PMD 2% w/v",6.0 −log10 TCID50/ml/min
same,Reduction in viral titre (significance),"[3]; all four concentrations, all contact times",significant reductions in viral titre
same,PMD concentration desirable for a significant antiviral action,[4]; 10 seconds' contact time,at least 1 % w/v
same,Log reduction in viral titre,"[4]; A/Sydney/5/97, PMD 0.25% w/v, contact time 10 seconds",0.4 −log10 TCID50/ml
same,Log reduction in viral titre,"[4]; A/Sydney/5/97, PMD 0.25% w/v, contact time 30 seconds",1.9 −log10 TCID50/ml
same,Log reduction in viral titre,"[4]; A/Sydney/5/97, PMD 0.25% w/v, contact time 60 seconds (1 minute)",1.9 −log10 TCID50/ml
same,Log reduction in viral titre,"[4]; A/Sydney/5/97, PMD 0.25% w/v, contact time 300 seconds (5 minutes)",1.4 −log10 TCID50/ml
same,Kill rate,"[4]; A/Sydney/5/97, PMD 0.25% w/v",4.5 −log10 TCID50/ml/min
same,Log reduction in viral titre,"[4]; A/Sydney/5/97, PMD 0.5% w/v, contact time 10 seconds",0.4 −log10 TCID50/ml
same,Log reduction in viral titre,"[4]; A/Sydney/5/97, PMD 0.5% w/v, contact time 30 seconds",1.9 −log10 TCID50/ml
same,Log reduction in viral titre,"[4]; A/Sydney/5/97, PMD 0.5% w/v, contact time 60 seconds (1 minute)",2.4 −log10 TCID50/ml
same,Log reduction in viral titre,"[4]; A/Sydney/5/97, PMD 0.5% w/v, contact time 300 seconds (5 minutes)",1.9 −log10 TCID50/ml
same,Kill rate,"[4]; A/Sydney/5/97, PMD 0.5% w/v",4.8 −log10 TCID50/ml/min
same,Log reduction in viral titre,"[4]; A/Sydney/5/97, PMD 1% w/v, contact time 10 seconds",1.9 −log10 TCID50/ml
same,Log reduction in viral titre,"[4]; A/Sydney/5/97, PMD 1% w/v, contact time 30 seconds",2.4 −log10 TCID50/ml
same,Log reduction in viral titre,"[4]; A/Sydney/5/97, PMD 1% w/v, contact time 60 seconds (1 minute)",2.4 −log10 TCID50/ml
same,Log reduction in viral titre,"[4]; A/Sydney/5/97, PMD 1% w/v, contact time 300 seconds (5 minutes)",2.4 −log10 TCID50/ml
same,Kill rate,"[4]; A/Sydney/5/97, PMD 1% w/v",12.0 −log10 TCID50/ml/min
same,Log reduction in viral titre,"[4]; A/Sydney/5/97, PMD 2% w/v, contact time 10 seconds",1.9 −log10 TCID50/ml
same,Log reduction in viral titre,"[4]; A/Sydney/5/97, PMD 2% w/v, contact time 30 seconds",2.4 −log10 TCID50/ml
same,Log reduction in viral titre,"[4]; A/Sydney/5/97, PMD 2% w/v, contact time 60 seconds (1 minute)",2.4 −log10 TCID50/ml
same,Log reduction in viral titre,"[4]; A/Sydney/5/97, PMD 2% w/v, contact time 300 seconds (5 minutes)",2.4 −log10 TCID50/ml
same,Kill rate,"[4]; A/Sydney/5/97, PMD 2% w/v",12.0 −log10 TCID50/ml/min
same,Reduction of viral titre,"[4]; PMD 1% w/v and 2% w/v, all contact time points",1.9-2.4 log10 TCID50/ml
same,Reduction of infection (significance),"[4]; all concentrations tested, except 0.25% w/v and 0.5% w/v at the 10 second contact time",significantly reduces
same,Effectiveness against the virus,[4]; influenza virus A/Sydney/5/97,effective
same,Reduction of viral titre,"[4]; the two lower concentrations (0.25%, 0.5% w/v), 30 second to 5 minute contact times",1.9-2.4 log10 TCID50/ml
same,Solubility in water,[5],poorly soluble
same,Percentage cell survival,"[6]; C1008, PMD 0.25% w/v",80%
same,Percentage cell survival,"[6]; C1008, PMD 0.5% w/v",60%
same,Percentage cell survival,"[6]; C1008, PMD 2% w/v",100%
same,Percentage cell survival,[7]; PMD 0.25% w/v,40%
same,Percentage cell survival,[7]; PMD 0.5% w/v,100%
same,Percentage cell survival,[7]; PMD 2% w/v,85%
same,Percentage cell survival,[8]; PMD 0.25% w/v,65%
same,Percentage cell survival,[8]; PMD 0.5% w/v,65%
same,Percentage cell survival,[8]; PMD 2% w/v,100%
same,Toxicity on MDCK cells,[9],do not exhibit toxicity
